We go through 7 compounds from patent US4435392A, “2,5-Benzodiazocine derivatives and salts thereof, as well as pharmaceutical agent comprising as effective component at least one of the derivatives and salts” (Sanwa Kagaku Kenkyusho Co. Ltd., priority 1982, dated 1984).

Bounds are passed on as bounds.

For series [1], the system named is dd-male mice. Kind of series: Analgetic action, Haffner's Method (tail root clamping). It counts as in vivo. As to conditions: Mus musculus, ip, abdominal cavity, hydrochloride. Here is the method:
In accordance with a usual manner, dd-male mice of 14 to 22 g were classified into groups, each having 10 mice, compounds to be tested in various concentrations were given to each mouse and then clamped a tail root of the mouse with use of Koffer clamps in each time period of having lapsed 15, 30, 45 and 60 minutes from the dosage to measure an analgetic action of the compounds by judging as "negative" when the tested mouse cries or looks back.
Further the number of deaths was counted in each 10 mice group after having lapsed 2 hours from dosage of each testing agent into abdominal cavity and then ED50, LD50 and 95% confidence limit were calculated based on the Richfield and Wilcoxson Methods to compare the results obtained on the agents.

The subject of series [2] is dd-male mice. The experiment in a line: Analgetic action, Acetic Acid Stretching Method. It counts as in vivo. The conditions noted are these: Mus musculus, po, orally given 30 minutes before acetic acid, hydrochloride. Here is the method:
(ii) Acetic Acid Stretching Method
The dd-male mice of 17 to 23 g were classified into groups, each having 10 mice, and 0.7% aqueous solution of acetic acid was dosed into abdominal cavity for each mouse in a ratio of 10 ml/kg and then a stretching condition was observed over 5 minutes of having lapsed 10 to 15 minutes from the dosage. The test was repeated 4 times to obtain total measured value and an inhibition ratio was measured from number of stretching actions. A judgement has been given in "Yes" or "No" system.
According to the Richfield and Wilcoxson Methods, ED50, LD50 and 95% confidence limit were calculated and compared the same for each testing agents and Control.
Each testing agent and control was orally given 30 minutes before the dosage of the acetic acid in a ratio of 100 mg/10 ml/kg.

The test system of a further series is Wister type male rats. The experiment in a line: Antipyretic Action (rectal body temperature). Format: in vivo. How it is done: Wister type male rats of 100 to 140 g were classified into groups, each having 4 to 5 rats. The rats were abstrained from food for 1 day and then each rat was entered in each cage. The body temperature was measured under a constant room temperature through the rectum. This body temperature measurement was carried out in 3 times before a dosage of agents as well as after lapsed 30, 60, 90, 120 and 150 minutes from the dosage.
Judgements have been given based on following 5 measures.

Series [3] has as its system dd-type male mice. Kind of series: Effect on Sleep (pentobarbital sleeping time). It counts as in vivo. As to conditions: pentobarbital 40 mg/kg. How it is done: The dd-type male mice of 16 to 24 g were classified into groups, each having 10 mice. To each mouse, a testing agent was dosed through abdominal cavity and after having lapsed 30 minutes from the dosage, 40 mg/kg of pentobarbital was also dosed through abdominal cavity to measure a time of sleeping period. The sleeping time in question designates a time period, wherein a facing reflex disappears. Judgements were given based on following 7 measures.

The next series can be described thus: Acute Toxity, rat. As to conditions: in vivo. How it is done: (§1) The dd-type 5 weeks male mice of 21 to 26 g and Wister type 5 weeks male rats of 110 to 150 g were classified into groups, each having 10 mice or rats. After having given testing agents to the mice and rats, general conditions, number of deaths in each day and body weight changes have been observed over 7 days. An LD50 value was calculated based on total number of deaths during the 7 days testing time period, in accordance with the Richfield-Wilcoxson Method. The surviving animals were dissected to visually observe internal organs thereof.

Another series can be described thus: Acute Toxity, mouse. The conditions noted are these: in vivo. How it is done: as §1
Series [4] concerns dd-type male mice. Kind of series: Effect on Sleep (pentobarbital sleeping time). As to conditions: pentobarbital 40 mg/kg. Format: in vivo. This is another data set of the same source.
[5] abbreviates: in abdominal cavity 50 mg/Kg, hydrochloride.
Setting [6] is: intravenous injectional dosage, 7 days.
Where [7] appears, read: ip, in abdominal cavity, 7 days.
[8] abbreviates: in abdominal cavity 25 mg/Kg (control).

`COc1ccc(C2c3ccccc3CN(CCCC(=O)c3ccc(F)cc3)CCN2C)cc1` (stereo not drawn) [Compound I-a, 5-[3-(p-fluorobenzoyl)propyl]-1,2,3,4,5,6-hexahydro-1-(p-methoxyphenyl)-2-methyl-2,5-benzodiazocine]: the ED50 in the series with dd-male mice [1] was 18.4 mg/kg; in the series with dd-male mice [2], 40.5 mg/kg. In the series with Wister type male rats (setting [5]), the “Antipyretic Action” value is “++ (showing decrease of 1° to 2 °C and obtaining at least one result of a notifiable difference of P<1%)”. The “Sleep Incrementing Action” value is “++ (sleeping time was extended by 30 to 60 minutes in comparison with control)” in the series with dd-type male mice [3] (in abdominal cavity 50 mg/Kg) and “+++ (sleeping time was extended by 60 minutes or more in comparison with control)” in the series with dd-type male mice [4] (oral dosage 100 mg/Kg). For the same compound, the 50% lethal dose (LD50) at 168 h in “Acute Toxity, rat” (setting [6]) amounted to 20 mg/kg; in the series “Acute Toxity, rat” (oral dosage, 7 days) it was 3500 mg/kg; in “Acute Toxity, mouse” (setting [6]) it was 30.1 mg/kg; in “Acute Toxity, mouse” (setting [7]), 179 mg/kg; in “Acute Toxity, mouse” (oral dosage, 7 days), 1500 mg/kg.
Consider `COc1ccc(CCN2CCN(C)C(c3ccc(OC)cc3)c3ccccc3C2)cc1` (stereo not drawn) [Compound I-b, 5-(p-methoxyphenethyl)-1,2,3,4,5,6-hexahydro-1-(p-methoxyphenyl)-2-methyl-2,5-benzodiazocine], for which the 50% effective dose (ED50) worked out at 26.2 mg/kg with dd-male mice [1] and 48.5 mg/kg in the series on dd-male mice [2]. The “Antipyretic Action” value in the series on Wister type male rats (setting [5]) is “++ (showing decrease of 1° to 2 °C and obtaining at least one result of a notifiable difference of P<1%)”. Also, the “Sleep Incrementing Action” value in the series with dd-type male mice [3] (in abdominal cavity 50 mg/Kg) and in the series with dd-type male mice [4] (oral dosage 100 mg/Kg) was “+++ (sleeping time was extended by 60 minutes or more in comparison with control)” in each case. The 50% lethal dose (LD50) at 168 h was found to be 20.7 mg/kg in the series “Acute Toxity, rat” (setting [6]); 4090 mg/kg in the series “Acute Toxity, rat” (oral dosage, 7 days); 33 mg/kg in “Acute Toxity, mouse” (setting [6]); 124 mg/kg in “Acute Toxity, mouse” (setting [7]); 623 mg/kg in “Acute Toxity, mouse” (oral dosage, 7 days).
For the compound `CN1CCN(CCCC(=O)c2ccc(F)cc2)Cc2ccccc2C1c1ccccc1` (stereo not drawn) [Compound I-c, 5-[3-(p-fluorobenzoyl)propyl]-1,2,3,4,5,6-hexahydro-1-phenyl-2-methyl-2,5-benzodiazocine], the ED50 in the series on dd-male mice [1] was 44.2 mg/kg; with dd-male mice [2], 5.7 mg/kg. The “Antipyretic Action” value with Wister type male rats (setting [5]) is “++ (showing decrease of 1° to 2 °C and obtaining at least one result of a notifiable difference of P<1%)”. For the same compound, the “Sleep Incrementing Action” value in the series with dd-type male mice [3] (in abdominal cavity 50 mg/Kg) and with dd-type male mice [4] (oral dosage 100 mg/Kg) was “+++ (sleeping time was extended by 60 minutes or more in comparison with control)” throughout. Further, the LD50 at 168 h in “Acute Toxity, rat” (setting [6]) was 23.8 mg/kg; in “Acute Toxity, rat” (oral dosage, 7 days), over 4000 mg/kg; in “Acute Toxity, mouse” (setting [6]) it was 29 mg/kg; in “Acute Toxity, mouse” (setting [7]) it was 208 mg/kg; in “Acute Toxity, mouse” (oral dosage, 7 days), 1700 mg/kg.
For the compound `c1ccc(C2NCCN(CC3CC3)Cc3ccccc32)cc1` (stereo not drawn) [Compound I-d, 5-cyclopropylmethyl-1,2,3,4,5,6-hexahydro-1-phenyl-2,5-benzodiazocine], the ED50 came to 17.1 mg/kg with dd-male mice [1] and 13.5 mg/kg with dd-male mice [2]. Further, the “Antipyretic Action” value in the series on Wister type male rats (setting [5]) is “++ (showing decrease of 1° to 2 °C and obtaining at least one result of a notifiable difference of P<1%)”. For the same compound, the “Sleep Incrementing Action” value with dd-type male mice [3] (in abdominal cavity 50 mg/Kg) and in the series on dd-type male mice [4] (oral dosage 100 mg/Kg) was “-- (sleeping time was shortened by 30 to 60 minutes in comparison with control)” each time. Also, the median lethal dose (LD50) at 168 h was found to be 17.8 mg/kg in the series “Acute Toxity, rat” (setting [6]); 485 mg/kg in “Acute Toxity, rat” (oral dosage, 7 days); 18 mg/kg in the series “Acute Toxity, mouse” (setting [6]); 51.6 mg/kg in the series “Acute Toxity, mouse” (setting [7]); 215 mg/kg in the series “Acute Toxity, mouse” (oral dosage, 7 days).
As for `CCOC(=O)/C=C/C(=O)Nc1ccc(CCN2CCNC(c3ccccc3)c3ccccc3C2)cc1` (stereo not drawn) [Compound I-e, [5(E)]-ethyl-4-[[4-[2-(1,2,3,4,5,6-hexahydro-1-phenyl-2,5-benzodiazocine)-5-yl]ethyl]phenyl]amino-4-oxo-2-butenoate], the ED50 was determined as 80.3 mg/kg in the series on dd-male mice [1] and 61.1 mg/kg in the series on dd-male mice [2]. For the same compound, in the series on Wister type male rats (setting [5]), the “Antipyretic Action” value is “++ (showing decrease of 1° to 2 °C and obtaining at least one result of a notifiable difference of P<1%)”. For the same compound, the “Sleep Incrementing Action” value is on record as “-- (sleeping time was shortened by 30 to 60 minutes in comparison with control)” in the series on dd-type male mice [3] (in abdominal cavity 50 mg/Kg) and “++ (sleeping time was extended by 30 to 60 minutes in comparison with control)” in the series on dd-type male mice [4] (oral dosage 100 mg/Kg). Moreover, the LD50 at 168 h in the series “Acute Toxity, rat” (po) was over 5000 mg/kg; in “Acute Toxity, mouse” (ip), over 200 mg/kg; in “Acute Toxity, mouse” (po), 938 mg/kg.
With `COc1ccc(C2NCCN(CCCC(=O)c3ccc(F)cc3)Cc3ccccc32)cc1` (stereo not drawn) [Compound I-f, 5-[3-(p-fluorobenzoyl)propyl]-1,2,3,4,5,6-hexahydro-1-(p-methoxyphenyl)-2,5-benzodiazocine], the median effective dose (ED50) with dd-male mice [1] is 30.7 mg/kg; in the series with dd-male mice [2], 11.5 mg/kg. Moreover, the “Antipyretic Action” value in the series on Wister type male rats (setting [5]) was “++ (showing decrease of 1° to 2 °C and obtaining at least one result of a notifiable difference of P<1%)”. In addition, the “Sleep Incrementing Action” value in the series on dd-type male mice [3] (in abdominal cavity 50 mg/Kg) and in the series with dd-type male mice [4] (oral dosage 100 mg/Kg) was “+++ (sleeping time was extended by 60 minutes or more in comparison with control)” throughout. Moreover, the LD50 at 168 h in “Acute Toxity, rat” (setting [6]) came out at 19.8 mg/kg; in “Acute Toxity, rat” (oral dosage, 7 days), 2890 mg/kg; in the series “Acute Toxity, mouse” (setting [6]), 35.9 mg/kg; in “Acute Toxity, mouse” (setting [7]) it was 109 mg/kg; in the series “Acute Toxity, mouse” (oral dosage, 7 days), 340 mg/kg.
In the case of `CN1CCOC(c2ccccc2)c2ccccc2C1` (stereo not drawn) [Nefopam, reference compound], the “Antipyretic Action” value in the series on Wister type male rats (setting [8]) was “++ (showing decrease of 1° to 2 °C and obtaining at least one result of a notifiable difference of P<1%)”. In addition, the “Sleep Incrementing Action” value with dd-type male mice [3] (setting [8]) and in the series with dd-type male mice [4] (oral dosage 50 mg/Kg (control)) was “-- (sleeping time was shortened by 30 to 60 minutes in comparison with control)” each time. For the same compound, the LD50 at 168 h in “Acute Toxity, rat” (setting [6]) stood at 18 mg/kg; in “Acute Toxity, rat” (oral dosage, 7 days), 595 mg/kg; in the series “Acute Toxity, mouse” (setting [6]), 36.8 mg/kg; in the series “Acute Toxity, mouse” (setting [7]) it was 72.4 mg/kg; in the series “Acute Toxity, mouse” (oral dosage, 7 days) it was 356 mg/kg.
